Several values for one entry are separate records, joined by “and”; a condition that tells them apart may be missing. Identical values can stand only once. HELM strings list units from the 5' end as sugar, base in round brackets, then linkage (d deoxyribose, r ribose, m 2'-O-methyl, p phosphodiester). Strings are as the collection lists them, not checked against the first reports. ss, as = sense and antisense strand; [fl2r] = 2'-fluoro

The values below come from the OligoGym collection.
Note: test system not given here.

For the series the following is noted: siRNA.
Turning to “RNA1{r(A)p.r(A)p.r(G)p.r(G)p.r(A)p.r(G)p.r(A)p.m(U)p.m(C)p.r(A)p.r(A)p.m(C)p.r(A)p.m(U)p.m(U)p.m(U)p.m(U)p.m(C)p.r(A)p.r(T)p.r(T)}|RNA2{m(U)p.r(G)p.r(A)p.r(A)p.r(A)p.r(A)p.m(U)p.r(G)p.r(U)p.r(U)p.r(G)p.r(A)p.m(U)p.m(C)p.m(U)p.m(C)p.m(C)p.m(U)p.m(U)p.r(T)p.r(T)}$$$RNA1{StrandType:ss}|RNA2{StrandType:as}$”, the target mRNA knockdown was 53% and 74%.
Consider “RNA1{r(A)p.r(A)p.r(G)p.r(G)p.r(A)p.r(G)p.r(A)p.r(U)p.r(C)p.r(A)p.r(A)p.r(C)p.r(A)p.r(U)p.r(U)p.r(U)p.m(U)p.m(C)p.m(A)p.r(T)p.r(T)}|RNA2{r(U)p.r(G)p.r(A)p.r(A)p.r(A)p.r(A)p.r(U)p.r(G)p.r(U)p.r(U)p.r(G)p.r(A)p.r(U)p.r(C)p.r(U)p.r(C)p.m(C)p.m(U)p.m(U)p.r(T)p.r(T)}$$$RNA1{StrandType:ss}|RNA2{StrandType:as}$”, for which the target mRNA knockdown turned out to be 73%.
“RNA1{r(A)p.r(A)p.r(G)p.r(G)p.r(C)p.r(C)p.r(A)p.r(A)p.r(C)p.r(C)p.r(G)p.r(A)p.[fl2r](U)p.r(A)p.r(C)p.r(U)p.r(U)p.r(C)p.r(U)p.r(T)p.r(T)}|RNA2{r(A)p.r(G)p.r(A)p.r(A)p.r(G)p.[fl2r](U)p.r(A)p.r(U)p.r(C)p.r(G)p.r(G)p.r(U)p.r(U)p.r(G)p.r(G)p.r(C)p.r(C)p.r(U)p.r(U)p.r(T)p.r(T)}$$$RNA1{StrandType:ss}|RNA2{StrandType:as}$” showed a target mRNA knockdown of 69%.
As for “RNA1{r(A)p.r(A)p.r(G)p.r(U)p.[fl2r](A)p.r(G)p.r(U)p.r(C)p.r(C)p.r(C)p.r(C)p.r(C)p.r(U)p.r(U)p.r(G)p.r(A)p.r(A)p.r(G)p.r(A)p.r(T)p.r(T)}|RNA2{r(U)p.r(C)p.r(U)p.r(U)p.r(C)p.r(A)p.r(A)p.r(G)p.r(G)p.r(G)p.r(G)p.r(G)p.r(A)p.r(C)p.[fl2r](U)p.r(A)p.r(C)p.r(U)p.r(U)p.r(T)p.r(T)}$$$RNA1{StrandType:ss}|RNA2{StrandType:as}$”, the target mRNA knockdown came out at 69%.
Regarding “RNA1{r(A)p.r(C)p.r(A)p.r(U)p.r(A)p.r(G)p.r(A)p.r(G)p.r(G)p.r(A)p.r(A)p.r(G)p.r(A)p.r(C)p.r(G)p.r(C)p.r(G)p.r(G)p.r(A)p.r(T)p.r(T)}|RNA2{r(U)p.r(C)p.r(C)p.r(G)p.r(C)p.r(G)p.r(U)p.r(C)p.r(U)p.r(U)p.r(C)p.r(C)p.r(U)p.r(C)p.[fl2r](U)p.r(A)p.r(U)p.r(G)p.r(U)p.r(T)p.r(T)}$$$RNA1{StrandType:ss}|RNA2{StrandType:as}$”, the target mRNA knockdown amounted to 89%.
For “RNA1{r(A)p.r(C)p.r(C)p.r(G)p.r(A)p.r(C)p.r(G)p.r(A)p.r(U)p.r(U)p.r(C)p.r(U)p.r(U)p.r(C)p.m(U)p.r(A)p.r(C)p.r(U)p.r(C)p.r(T)p.r(T)}|RNA2{r(G)p.r(A)p.r(G)p.m(U)p.r(A)p.r(G)p.r(A)p.r(A)p.r(G)p.m(A)p.m(A)p.r(U)p.r(C)p.r(G)p.r(U)p.r(C)p.r(G)p.r(G)p.r(U)p.r(T)p.r(T)}$$$RNA1{StrandType:ss}|RNA2{StrandType:as}$”, the target mRNA knockdown was 67%.
In the case of “RNA1{r(A)p.r(C)p.r(C)p.r(G)p.r(A)p.r(C)p.r(G)p.r(A)p.r(U)p.r(U)p.r(C)p.r(U)p.r(U)p.r(C)p.r(U)p.r(A)p.r(C)p.r(U)p.r(C)p.r(T)p.r(T)}|RNA2{r(G)p.r(A)p.r(G)p.m(U)p.r(A)p.r(G)p.r(A)p.r(A)p.r(G)p.r(A)p.r(A)p.r(U)p.r(C)p.r(G)p.r(U)p.r(C)p.r(G)p.r(G)p.r(U)p.r(T)p.r(T)}$$$RNA1{StrandType:ss}|RNA2{StrandType:as}$” it was 68%; in that of “RNA1{r(A)p.r(C)p.r(C)p.r(U)p.[fl2r](U)p.r(A)p.r(A)p.r(G)p.r(G)p.r(A)p.r(C)p.[fl2r](C)p.[fl2r](A)p.r(C)p.r(C)p.r(G)p.r(G)p.r(A)p.r(U)p.r(T)p.r(T)}|RNA2{r(A)p.r(U)p.r(C)p.r(C)p.r(G)p.r(G)p.[fl2r](U)p.[fl2r](G)p.r(G)p.r(U)p.r(C)p.r(C)p.r(U)p.[fl2r](U)p.[fl2r](A)p.r(A)p.r(G)p.r(G)p.r(U)p.r(T)p.r(T)}$$$RNA1{StrandType:ss}|RNA2{StrandType:as}$”, 70%; in that of “RNA1{r(A)p.r(C)p.r(C)p.r(U)p.[fl2r](U)p.r(A)p.r(A)p.r(G)p.r(G)p.r(A)p.r(C)p.r(C)p.r(A)p.r(C)p.r(C)p.r(G)p.r(G)p.r(A)p.r(U)p.r(T)p.r(T)}|RNA2{r(A)p.r(U)p.r(C)p.r(C)p.r(G)p.r(G)p.[fl2r](U)p.r(G)p.r(G)p.r(U)p.r(C)p.r(C)p.r(U)p.r(U)p.r(A)p.r(A)p.r(G)p.r(G)p.r(U)p.r(T)p.r(T)}$$$RNA1{StrandType:ss}|RNA2{StrandType:as}$”, 71%.
As for “RNA1{r(A)p.r(C)p.r(C)p.r(U)p.m(U)p.r(A)p.r(A)p.r(G)p.r(G)p.r(A)p.r(C)p.m(C)p.r(A)p.r(C)p.r(C)p.r(G)p.r(G)p.r(A)p.r(U)p.r(T)p.r(T)}|RNA2{r(A)p.r(U)p.r(C)p.r(C)p.r(G)p.r(G)p.m(U)p.r(G)p.r(G)p.r(U)p.r(C)p.r(C)p.r(U)p.m(U)p.r(A)p.r(A)p.r(G)p.r(G)p.r(U)p.r(T)p.r(T)}$$$RNA1{StrandType:ss}|RNA2{StrandType:as}$”, the figure is 72%; as for “RNA1{r(A)p.r(C)p.r(C)p.r(U)p.m(U)p.r(A)p.r(A)p.r(G)p.r(G)p.r(A)p.r(C)p.r(C)p.r(A)p.r(C)p.r(C)p.r(G)p.r(G)p.r(A)p.r(U)p.r(T)p.r(T)}|RNA2{r(A)p.r(U)p.r(C)p.r(C)p.r(G)p.r(G)p.r(U)p.r(G)p.r(G)p.r(U)p.r(C)p.r(C)p.r(U)p.m(U)p.r(A)p.r(A)p.r(G)p.r(G)p.r(U)p.r(T)p.r(T)}$$$RNA1{StrandType:ss}|RNA2{StrandType:as}$”, 74%.
In turn, “RNA1{r(A)p.r(C)p.r(C)p.r(U)p.r(U)p.r(U)p.r(C)p.m(C)p.r(A)p.r(C)p.r(U)p.r(U)p.r(C)p.m(U)p.r(A)p.r(A)p.r(G)p.r(C)p.r(C)p.r(T)p.r(T)}|RNA2{r(G)p.r(G)p.r(C)p.r(U)p.m(U)p.r(A)p.r(G)p.r(A)p.r(A)p.r(G)p.m(U)p.r(G)p.r(G)p.r(A)p.r(A)p.r(A)p.r(G)p.r(G)p.r(U)p.r(T)p.r(T)}$$$RNA1{StrandType:ss}|RNA2{StrandType:as}$” registered a target mRNA knockdown of 75%.
In the case of “RNA1{r(A)p.r(C)p.r(C)p.r(U)p.r(U)p.r(U)p.r(C)p.r(C)p.r(A)p.r(C)p.r(U)p.r(U)p.r(C)p.r(U)p.r(A)p.r(A)p.r(G)p.r(C)p.r(C)p.r(T)p.r(T)}|RNA2{r(G)p.r(G)p.r(C)p.m(U)p.m(U)p.r(A)p.r(G)p.r(A)p.r(A)p.r(G)p.m(U)p.r(G)p.r(G)p.r(A)p.r(A)p.r(A)p.r(G)p.r(G)p.m(U)p.r(T)p.r(T)}$$$RNA1{StrandType:ss}|RNA2{StrandType:as}$” it was 80%; in that of “RNA1{r(A)p.r(C)p.r(G)p.r(G)p.r(C)p.r(U)p.r(C)p.r(G)p.r(C)p.[fl2r](U)p.r(A)p.r(C)p.r(C)p.r(C)p.r(U)p.r(C)p.r(G)p.r(A)p.r(C)p.r(T)p.r(T)}|RNA2{r(G)p.r(U)p.r(C)p.r(G)p.r(A)p.r(G)p.r(G)p.r(G)p.[fl2r](U)p.r(A)p.r(G)p.r(C)p.r(G)p.r(A)p.r(G)p.r(C)p.r(C)p.r(G)p.r(U)p.r(T)p.r(T)}$$$RNA1{StrandType:ss}|RNA2{StrandType:as}$”, 78%; in that of “RNA1{r(A)p.r(C)p.r(G)p.r(G)p.r(C)p.r(U)p.r(C)p.r(G)p.r(C)p.r(U)p.[fl2r](A)p.r(C)p.r(C)p.r(C)p.r(U)p.r(C)p.r(G)p.r(A)p.r(C)p.r(T)p.r(T)}|RNA2{r(G)p.r(U)p.r(C)p.r(G)p.r(A)p.r(G)p.r(G)p.r(G)p.r(U)p.r(A)p.r(G)p.r(C)p.r(G)p.r(A)p.r(G)p.r(C)p.r(C)p.r(G)p.r(U)p.r(T)p.r(T)}$$$RNA1{StrandType:ss}|RNA2{StrandType:as}$”, 83%.
Regarding “RNA1{r(A)p.r(C)p.r(G)p.r(U)p.m(C)p.r(A)p.r(C)p.r(C)p.r(G)p.r(A)p.r(G)p.r(G)p.r(A)p.r(G)p.r(A)p.r(A)p.r(G)p.m(U)p.m(A)p.r(T)p.r(T)}|RNA2{m(U)p.m(A)p.r(C)p.r(U)p.r(U)p.r(C)p.r(U)p.r(C)p.r(C)p.r(U)p.r(C)p.r(G)p.r(G)p.m(U)p.r(G)p.r(A)p.r(C)p.r(G)p.r(U)p.r(T)p.r(T)}$$$RNA1{StrandType:ss}|RNA2{StrandType:as}$”, the target mRNA knockdown was 74%.
“RNA1{r(A)p.r(C)p.r(G)p.r(U)p.m(C)p.r(A)p.r(C)p.r(C)p.r(G)p.r(A)p.r(G)p.r(G)p.r(A)p.r(G)p.r(A)p.r(A)p.r(G)p.m(U)p.r(A)p.r(T)p.r(T)}|RNA2{r(U)p.r(A)p.r(C)p.r(U)p.r(U)p.r(C)p.r(U)p.r(C)p.r(C)p.r(U)p.r(C)p.r(G)p.r(G)p.m(U)p.r(G)p.r(A)p.r(C)p.r(G)p.r(U)p.r(T)p.r(T)}$$$RNA1{StrandType:ss}|RNA2{StrandType:as}$” showed a target mRNA knockdown of 48%.
On to “RNA1{r(A)p.r(C)p.r(G)p.r(U)p.m(C)p.r(A)p.r(C)p.r(C)p.r(G)p.r(A)p.r(G)p.r(G)p.r(A)p.r(G)p.r(A)p.r(A)p.r(G)p.r(U)p.r(A)p.r(T)p.r(T)}|RNA2{m(U)p.r(A)p.r(C)p.r(U)p.r(U)p.r(C)p.r(U)p.r(C)p.r(C)p.r(U)p.r(C)p.r(G)p.r(G)p.m(U)p.r(G)p.r(A)p.r(C)p.r(G)p.r(U)p.r(T)p.r(T)}$$$RNA1{StrandType:ss}|RNA2{StrandType:as}$”, for which the target mRNA knockdown stood at 80%.
Regarding “RNA1{r(A)p.r(C)p.r(G)p.r(U)p.r(C)p.r(A)p.r(C)p.r(C)p.r(G)p.r(A)p.r(G)p.r(G)p.r(A)p.r(G)p.r(A)p.r(A)p.r(G)p.m(U)p.r(A)p.r(T)p.r(T)}|RNA2{r(U)p.r(A)p.r(C)p.r(U)p.r(U)p.r(C)p.r(U)p.r(C)p.r(C)p.r(U)p.r(C)p.r(G)p.r(G)p.r(U)p.r(G)p.r(A)p.r(C)p.r(G)p.r(U)p.r(T)p.r(T)}$$$RNA1{StrandType:ss}|RNA2{StrandType:as}$”, the target mRNA knockdown was 69%.
In turn, “RNA1{r(A)p.r(G)p.[fl2r](U)p.r(A)p.r(A)p.[fl2r](U)p.[fl2r](C)p.[fl2r](C)p.r(G)p.r(G)p.r(A)p.[fl2r](C)p.[fl2r](U)p.[fl2r](C)p.r(A)p.r(A)p.[fl2r](C)p.[fl2r](U)p.[fl2r](C)p.r(T)p.r(T)}|RNA2{r(G)p.r(A)p.r(G)p.r(U)p.r(U)p.r(G)p.r(A)p.r(G)p.r(U)p.r(C)p.r(C)p.r(G)p.r(G)p.r(A)p.r(U)p.r(U)p.r(A)p.r(C)p.r(U)p.r(T)p.r(T)}$$$RNA1{StrandType:ss}|RNA2{StrandType:as}$” gave a target mRNA knockdown of 59%.
